Like-named read-outs stand apart in the source and are kept apart here.
Legend:
[1] = In vitro penetration rate through human skin in modified Franz cells; format: in vitro ADME; conditions: isolated human skin 360-400 μm, 2 mL, 20% in 0.2 M phosphate buffer pH 7.4
Experimental: The penetration rates of HPPs of 4-aminophenol derivatives and their parent drugs through human skin were measured in vitro by modified Franz cells. […] The human skin tissue (360-400 μm thick) that separated the top and the receptor chambers was isolated from the anterior or posterior thigh areas.
The amount of the tested compound penetrating the skin was determined by high-performance liquid chromatography (HPLC) method.
The lowest detectable apparent flux values in this method was 1 μg/cm^2/h, the parent drugs tested (e.g. acetaminophen and acetaminosalol) had […], and the corresponding HPPs had higher apparent flux value.

mice = experiment: Analgesic activity, acetic acid writhing inhibition; format: in vivo; conditions: 100 mg/kg transdermally, versus control group
Experimental: Acetic acid solution was administered intraperitoneally to a group of mice (6 mice every group) 120 minutes after a test compound was administered to the mice at the dosage specified in the tables below. The prodrug compounds were administered either transdermally or orally. N-acetyl-p-aminophenyl dimethylaminobutyrate.HCl (100 mg/kg, B) and 4-acetamidophenyl 2((4-(dimethylamino)butanoyl)oxy)benzoate.HCl, (100 mg/kg, C) were administered transdermally. The number of writhings that occurred when mice were administered the acetic acid solution were counted, and the rate of inhibition based on the control group which was not pretreated with any test compounds was calculated. […] Group A was the control group.

rats = experiment: Antipyretic activity in rats given E. coli suspension as pyrogen; format: in vivo; conditions: 100 mg/kg transdermally
Experimental: Rats received a sterilized E. coli suspension as a pyrogen. The control group was group A. 2 hours later, N-acetyl-p-aminophenyl dimethylaminobutyrate.HCl (100 mg/kg, B) and 4-acetamidophenyl 2((4-(dimethylamino)butanoyl)oxy)benzoate.HCl, (100 mg/kg, C) were administered transdermally respectively. The body temperature of rats was taken at 90 min. intervals before and after the administration of the test compounds.

[2] = Aqueous solubility of HPPs and parent drugs; format: physicochemical
[3] = Plasma levels of parent compounds after transdermal administration to hairless mice; format: in vivo; conditions: transdermal on 10 cm^2 back skin; for Plasma concentration of the parent compound (peak plasma level): 20% solution or suspension in 1 ml 70% ethanol; for t (time to peak plasma level of the parent compound): 20% in 1 ml 70% ethanol
Experimental: Test compounds (20% solution or suspension of HPPs or parent drugs in 1 ml of 70% ethanol) were administered transdermally to 10 cm^2 skin on the backs of hairless mice. The plasma levels of the parent compounds were determined by HPLC.

[4] = In vivo transportation: amounts in organs and tissue of rats after application to back skin; conditions: 6 hours after 20% in 1 mL 50% ethanol on 10 cm^2 back skin
Experimental: N-Acetyl-p-aminophenyl dimethylaminobutyrate.HCl (20% in 1 mL of 50% ethanol) was applied to about 10 cm^2 skin on the backs of rats (˜200 g). After 6 hours, the rats were terminated, and methanol (5 mL) was added to 1 g of tissue on the back of rat (under the skin), 1 ml of blood, 1 g of liver, 1 g of kidney, and 1 g of brain respectively (the tissue, liver, kidney or brain was washed with pH 7.2 buffer for three times) and the mixtures were homogenized. The samples were then centrifuged for 5 min and analyzed using HPLC.

in vivo = conditions: mouse
[5] = water (aqueous), read-out: Solubility

CC(=O)Nc1ccc(OC(=O)c2ccccc2OC(=O)CCCN(C)C)cc1.Cl [4-acetamidophenyl 2((4-(dimethylamino)butanoyl)oxy)benzoate.HCl]
In vitro Penetration rate (apparent flux) [1]: 1800 μg/cm^2/h | rate of writhings inhibition (mice): 55% | body temperature, t = 0 min. (rats): 37.27 ± 0.06 | body temperature, t = 90 min. (rats): 36.63 ± 0.05 | body temperature, t = 180 min. (rats): 36.52 ± 0.08 | body temperature, t = 270 min. (rats): 36.50 ± 0.07 | solubility [2]: >400 g/L | Plasma concentration of the parent compound (peak plasma level) [3]: 30.0 mg/L | t (time to peak plasma level of the parent compound) ([3]; prodrug compound): ~50 min

CC(=O)Nc1ccc(OC(=O)CCCN(C)C)cc1.Cl [N-Acetyl-p-Aminophenyl Dimethylaminobutyrate.HCl]
In vitro Penetration rate (apparent flux) [1]: 1500 μg/cm^2/h | rate of writhings inhibition (mice): 55% | body temperature, t = 0 min. (rats): 37.32 ± 0.06 | body temperature, t = 90 min. (rats): 36.61 ± 0.05 | body temperature, t = 180 min. (rats): 36.50 ± 0.08 | body temperature, t = 270 min. (rats): 36.50 ± 0.07 | N-acetyl-p-aminophenyl dimethylaminobutyrate detected in blood [4]: 10 ± 4 µg/g | N-acetyl-p-aminophenyl dimethylaminobutyrate detected in brain [4]: 3 ± 3 µg/g | N-acetyl-p-aminophenyl dimethylaminobutyrate detected in kidney [4]: 6 ± 4 µg/g | N-acetyl-p-aminophenyl dimethylaminobutyrate detected in liver [4]: 7 ± 4 µg/g | N-acetyl-p-aminophenyl dimethylaminobutyrate detected in under-skin tissue [4]: 15 ± 8 µg/g | acetaminophen detected in blood [4]: 30 ± 8 µg/g | acetaminophen detected in brain [4]: 10 ± 8 µg/g | acetaminophen detected in kidney [4]: 20 ± 10 µg/g | acetaminophen detected in liver [4]: 20 ± 10 µg/g | acetaminophen detected in under-skin tissue [4]: 60 ± 10 µg/g | solubility [2]: >400 g/L | Plasma concentration of the parent compound (peak plasma level) [3]: 30.0 mg/L | t (time to peak plasma level of the parent compound) ([3]; prodrug compound): ~50 min

CC(=O)Nc1ccc(OC(=O)c2ccccc2O)cc1 [acetaminosalol, 4-acetamidophenyl salicylate, reference compound]
In vitro Penetration rate (apparent flux) [1]: 10 μg/cm^2/h | LD50 (in vivo): 550 mg/kg | solubility [2, 5]: < 0.1 g/L | Plasma concentration of the parent compound (peak plasma level) [3]: 0.1 mg/L | t (time to peak plasma level of the parent compound) ([3]; parent compound): ~300 min

CC(=O)Nc1ccc(O)cc1 [acetaminophen, N-Acetyl-p-aminophenol, reference compound]
In vitro Penetration rate (apparent flux) [1]: 10 μg/cm^2/h | LD50 (in vivo): 340 mg/kg | solubility [2, 5]: < 0.2 g/L | Plasma concentration of the parent compound (peak plasma level) [3]: 0.1 mg/L | t (time to peak plasma level of the parent compound) ([3]; parent compound): ~300 min
